This test has as its target T1, apocarotenoid oxygenase ACO from Synechocystis (Synechocystis sp. PCC 6803, UniProt P74334).
T1 sequence (P74334 1-490): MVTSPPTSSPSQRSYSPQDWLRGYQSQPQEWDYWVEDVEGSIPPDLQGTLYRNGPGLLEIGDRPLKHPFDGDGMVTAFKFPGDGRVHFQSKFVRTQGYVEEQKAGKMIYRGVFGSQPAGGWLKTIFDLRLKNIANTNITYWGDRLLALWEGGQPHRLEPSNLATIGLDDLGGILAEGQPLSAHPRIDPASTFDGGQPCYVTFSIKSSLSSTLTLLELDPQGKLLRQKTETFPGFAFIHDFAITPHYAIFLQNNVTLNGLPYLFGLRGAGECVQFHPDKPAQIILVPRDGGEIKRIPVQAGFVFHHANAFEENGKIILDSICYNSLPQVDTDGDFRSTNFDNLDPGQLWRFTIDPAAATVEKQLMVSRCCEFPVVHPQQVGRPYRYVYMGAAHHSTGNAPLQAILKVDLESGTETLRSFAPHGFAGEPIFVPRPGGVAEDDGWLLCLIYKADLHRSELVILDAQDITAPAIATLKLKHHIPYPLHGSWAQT
The experiment in a line: HPLC at […] nm, UV-visible spectra. It is filed as biochemical. Particulars: product 3-hydroxy-retinal.

`CC1=C(/C=C/C(C)=C/C=C/C(C)=C/C=C/C=C(\C)C=O)C(C)(C)C[C@H](O)C1` [3-hydroxy-β-apo-12’-carotenal]: the “HPLC at 360 nm, UV-visible spectra” value is given as “first incubated 3-hydroxy-β-apo-12’-carotenal with the bacterial ACO to produce 3-hydroxy-retinal”.
